According to the supplement of paper PMC10307832:

How the values were obtained:
AZD1208 = compound: N[C@@H]1CCCN(c2c(/C=C3\SC(=O)NC3=O)cccc2-c2ccccc2)C1 [AZD1208]; test: relative viability (nuclei count vs DMSO), 5 days (fraction); higher = more cells survive
Summary of the method: (§1)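 Vehicle-anchored 1536-well plates of lung cancer cell lines, held overnight at 37 °C, were pinned with five library-drug doses (not always all listed) spaced by √10. No medium change followed over the next 5 days, after which the cells were fixed, permeabilised and Hoechst-stained together and imaged at 4×. Nuclei were counted with MetaXpress, and viability is treated-well nuclei over vehicle-well nuclei, taken as a median across plates. Plates passed with control CV below 25% and at least one doubling.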

XMD14-99 = compound: CN1CCN(CC1)C2=CC(=C(C=C2)NC3=NC(=C(S3)C(=O)C4=C(C=CC=C4Cl)Cl)N)OC [XMD14-99]; test: as above
Summary of the method: as §1

NCI-H596
relative viability (AZD1208; 0.08 µM): 0.908 | relative viability (AZD1208; 0.253 µM): 0.951 | relative viability (AZD1208; 0.8 µM): 0.844 | relative viability (AZD1208; 2.53 µM): 0.949 | relative viability (AZD1208; 8 µM): 0.677 | relative viability (XMD14-99; 0.08 µM): 0.944 | relative viability (XMD14-99; 0.8 µM): 1.05 | relative viability (XMD14-99; 2.53 µM): 1.01 | relative viability (XMD14-99; 8 µM): 0.887

NCI-H647
relative viability (AZD1208; 0.08 µM): 1.02 | relative viability (AZD1208; 0.253 µM): 1.04 | relative viability (AZD1208; 0.8 µM): 0.891 | relative viability (AZD1208; 2.53 µM): 0.892 | relative viability (AZD1208; 8 µM): 0.788 | relative viability (XMD14-99; 0.08 µM): 0.981 | relative viability (XMD14-99; 0.8 µM): 0.99 | relative viability (XMD14-99; 2.53 µM): 0.92 | relative viability (XMD14-99; 8 µM): 0.819

NCI-H650
relative viability (AZD1208; 0.08 µM): 1.09 | relative viability (AZD1208; 0.253 µM): 0.972 | relative viability (AZD1208; 0.8 µM): 0.833 | relative viability (AZD1208; 2.53 µM): 0.759 | relative viability (AZD1208; 8 µM): 0.73 | relative viability (XMD14-99; 0.08 µM): 1.02 | relative viability (XMD14-99; 0.8 µM): 1 | relative viability (XMD14-99; 2.53 µM): 0.98 | relative viability (XMD14-99; 8 µM): 0.808

NCI-H661
relative viability (AZD1208; 0.08 µM): 0.993 | relative viability (AZD1208; 0.253 µM): 1.02 | relative viability (AZD1208; 0.8 µM): 1.04 | relative viability (AZD1208; 2.53 µM): 0.981 | relative viability (AZD1208; 8 µM): 0.93 | relative viability (XMD14-99; 0.08 µM): 0.925 | relative viability (XMD14-99; 0.8 µM): 0.948 | relative viability (XMD14-99; 2.53 µM): 0.835 | relative viability (XMD14-99; 8 µM): 0.678

NCI-H727
relative viability (AZD1208; 0.08 µM): 0.891 | relative viability (AZD1208; 0.253 µM): 0.886 | relative viability (AZD1208; 0.8 µM): 0.777 | relative viability (AZD1208; 2.53 µM): 0.755 | relative viability (AZD1208; 8 µM): 0.827 | relative viability (XMD14-99; 0.08 µM): 1.03 | relative viability (XMD14-99; 0.8 µM): 0.815 | relative viability (XMD14-99; 2.53 µM): 0.846 | relative viability (XMD14-99; 8 µM): 0.567

NCI-H838
relative viability (AZD1208; 0.08 µM): 0.938 | relative viability (AZD1208; 0.253 µM): 0.967 | relative viability (AZD1208; 0.8 µM): 0.841 | relative viability (AZD1208; 2.53 µM): 0.902 | relative viability (AZD1208; 8 µM): 0.844 | relative viability (XMD14-99; 0.08 µM): 0.911 | relative viability (XMD14-99; 0.8 µM): 0.939 | relative viability (XMD14-99; 2.53 µM): 0.873 | relative viability (XMD14-99; 8 µM): 0.658

NCI-H1299
relative viability (AZD1208; 0.08 µM): 1.01 | relative viability (AZD1208; 0.253 µM): 1.06 | relative viability (AZD1208; 0.8 µM): 1.03 | relative viability (AZD1208; 2.53 µM): 1.06 | relative viability (AZD1208; 8 µM): 1.06 | relative viability (XMD14-99; 0.08 µM): 0.996 | relative viability (XMD14-99; 0.8 µM): 0.98 | relative viability (XMD14-99; 2.53 µM): 0.941 | relative viability (XMD14-99; 8 µM): 0.859

NCI-H1355
relative viability (AZD1208; 0.08 µM): 1.03 | relative viability (AZD1208; 0.253 µM): 0.983 | relative viability (AZD1208; 0.8 µM): 0.908 | relative viability (AZD1208; 2.53 µM): 0.876 | relative viability (AZD1208; 8 µM): 0.789 | relative viability (XMD14-99; 0.08 µM): 0.996 | relative viability (XMD14-99; 0.8 µM): 0.999 | relative viability (XMD14-99; 2.53 µM): 0.89 | relative viability (XMD14-99; 8 µM): 0.825

NCI-H1395
relative viability (AZD1208; 0.08 µM): 1.15 | relative viability (AZD1208; 0.253 µM): 1 | relative viability (AZD1208; 0.8 µM): 0.93 | relative viability (AZD1208; 2.53 µM): 0.913 | relative viability (AZD1208; 8 µM): 0.697 | relative viability (XMD14-99; 0.08 µM): 0.981 | relative viability (XMD14-99; 0.8 µM): 0.951 | relative viability (XMD14-99; 2.53 µM): 0.997 | relative viability (XMD14-99; 8 µM): 0.695

NCI-H1437
relative viability (AZD1208; 0.08 µM): 1.06 | relative viability (AZD1208; 0.253 µM): 1.13 | relative viability (AZD1208; 0.8 µM): 1.05 | relative viability (AZD1208; 2.53 µM): 1.03 | relative viability (AZD1208; 8 µM): 0.939 | relative viability (XMD14-99; 0.08 µM): 0.968 | relative viability (XMD14-99; 0.8 µM): 0.903 | relative viability (XMD14-99; 2.53 µM): 0.814 | relative viability (XMD14-99; 8 µM): 0.682

NCI-H1563
relative viability (AZD1208; 0.08 µM): 0.962 | relative viability (AZD1208; 0.253 µM): 0.928 | relative viability (AZD1208; 0.8 µM): 0.952 | relative viability (AZD1208; 2.53 µM): 0.956 | relative viability (AZD1208; 8 µM): 0.923 | relative viability (XMD14-99; 0.08 µM): 0.926 | relative viability (XMD14-99; 0.8 µM): 0.999 | relative viability (XMD14-99; 2.53 µM): 0.92 | relative viability (XMD14-99; 8 µM): 0.833

NCI-H1623
relative viability (AZD1208; 0.08 µM): 0.984 | relative viability (AZD1208; 0.253 µM): 0.912 | relative viability (AZD1208; 0.8 µM): 0.764 | relative viability (AZD1208; 2.53 µM): 0.871 | relative viability (AZD1208; 8 µM): 0.746 | relative viability (XMD14-99; 0.08 µM): 0.959 | relative viability (XMD14-99; 0.8 µM): 0.99 | relative viability (XMD14-99; 2.53 µM): 1.01 | relative viability (XMD14-99; 8 µM): 0.804

NCI-H1648
relative viability (AZD1208; 0.08 µM): 0.981 | relative viability (AZD1208; 0.253 µM): 1.25 | relative viability (AZD1208; 0.8 µM): 0.921 | relative viability (AZD1208; 2.53 µM): 1.04 | relative viability (AZD1208; 8 µM): 1.05 | relative viability (XMD14-99; 0.08 µM): 0.845 | relative viability (XMD14-99; 0.8 µM): 0.713 | relative viability (XMD14-99; 2.53 µM): 0.734 | relative viability (XMD14-99; 8 µM): 0.454

NCI-H1650
relative viability (AZD1208; 0.08 µM): 0.924 | relative viability (AZD1208; 0.253 µM): 1.1 | relative viability (AZD1208; 0.8 µM): 0.868 | relative viability (AZD1208; 2.53 µM): 0.898 | relative viability (AZD1208; 8 µM): 0.88 | relative viability (XMD14-99; 0.08 µM): 0.818 | relative viability (XMD14-99; 0.8 µM): 0.976 | relative viability (XMD14-99; 2.53 µM): 0.805 | relative viability (XMD14-99; 8 µM): 0.807

NCI-H1651
relative viability (AZD1208; 0.08 µM): 0.954 | relative viability (AZD1208; 0.253 µM): 1.07 | relative viability (AZD1208; 0.8 µM): 0.83 | relative viability (AZD1208; 2.53 µM): 0.928 | relative viability (AZD1208; 8 µM): 0.856 | relative viability (XMD14-99; 0.08 µM): 0.972 | relative viability (XMD14-99; 0.8 µM): 0.984 | relative viability (XMD14-99; 2.53 µM): 0.964 | relative viability (XMD14-99; 8 µM): 0.845

NCI-H1666
relative viability (AZD1208; 0.08 µM): 0.992 | relative viability (AZD1208; 0.253 µM): 1.06 | relative viability (AZD1208; 0.8 µM): 0.881 | relative viability (AZD1208; 2.53 µM): 0.942 | relative viability (AZD1208; 8 µM): 0.959 | relative viability (XMD14-99; 0.08 µM): 1 | relative viability (XMD14-99; 0.8 µM): 0.922 | relative viability (XMD14-99; 2.53 µM): 0.999 | relative viability (XMD14-99; 8 µM): 0.877

NCI-H1703
relative viability (AZD1208; 0.08 µM): 0.846 | relative viability (AZD1208; 0.253 µM): 0.881 | relative viability (AZD1208; 0.8 µM): 0.846 | relative viability (AZD1208; 2.53 µM): 0.718 | relative viability (AZD1208; 8 µM): 0.654 | relative viability (XMD14-99; 0.08 µM): 0.89 | relative viability (XMD14-99; 0.8 µM): 0.912 | relative viability (XMD14-99; 2.53 µM): 0.91 | relative viability (XMD14-99; 8 µM): 0.761

NCI-H1734
relative viability (AZD1208; 0.08 µM): 0.887 | relative viability (AZD1208; 0.253 µM): 0.989 | relative viability (AZD1208; 0.8 µM): 0.874 | relative viability (AZD1208; 2.53 µM): 0.841 | relative viability (AZD1208; 8 µM): 0.647 | relative viability (XMD14-99; 0.08 µM): 0.969 | relative viability (XMD14-99; 0.8 µM): 0.969 | relative viability (XMD14-99; 2.53 µM): 0.922 | relative viability (XMD14-99; 8 µM): 0.754
